In BindingDB's records for doi:10.7270/Q2B27SRF (Broad Institute, 2010):

biological target: Serine/threonine-protein kinase 33 (Homo sapiens, UniProt Q9BYT3); assay: inhibition of STK33 phosphorylation of MBP – biochemical, luminescence, cell-free, retest, dose response (AID 2821)
Sequence (Q9BYT3 whole entry): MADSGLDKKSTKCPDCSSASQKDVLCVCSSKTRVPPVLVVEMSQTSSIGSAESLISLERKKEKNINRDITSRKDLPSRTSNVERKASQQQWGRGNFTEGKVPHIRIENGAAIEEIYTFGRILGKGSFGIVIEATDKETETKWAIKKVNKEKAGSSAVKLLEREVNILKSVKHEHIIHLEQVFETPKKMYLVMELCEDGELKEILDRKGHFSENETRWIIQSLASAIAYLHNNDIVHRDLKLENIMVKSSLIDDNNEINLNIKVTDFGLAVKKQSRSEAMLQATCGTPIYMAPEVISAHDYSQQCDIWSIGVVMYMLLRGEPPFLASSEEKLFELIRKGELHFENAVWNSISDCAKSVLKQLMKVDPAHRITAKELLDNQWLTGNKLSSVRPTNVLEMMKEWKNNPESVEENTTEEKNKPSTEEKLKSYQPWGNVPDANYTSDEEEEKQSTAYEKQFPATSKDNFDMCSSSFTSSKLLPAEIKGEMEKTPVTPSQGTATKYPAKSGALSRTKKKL

Row | EC50 | SMILES
1 | > 120 µM | CCCCCCCCCCOC(=O)Cn1c(COc2ccc(Cl)cc2)[n+](C)c2ccccc21 [decyl 2-[2-[(4-chloranylphenoxy)methyl]-3-methyl-benzimidazol-3-ium-1-yl]ethanoate;chloride]
2 | 1.75 µM | COc1cc(C=CC(=O)CC(=O)C=Cc2ccc(O)cc2)ccc1O [demethoxycurcumin]
3 | > 120 µM | COC(=O)c1cc(NC(=O)C2COc3ccccc3O2)cc(C(=O)OC)c1 (stereo not drawn) [dimethyl 5-(2,3-dihydro-1,4-benzodioxin-3-ylcarbonylamino)benzene-1,3-dicarboxylate]
